Laboratory results as given in ChEMBL document CHEMBL1133598, “Synthesis, molecular modeling, and pharmacological testing of bis-quinolinium cyclophanes: potent, non-peptidic blockers of the apamin-sensitive Ca(2+)-activated K(+) channel” (J Med Chem, 2000).

Key:
[1] = molecular target: Small conductance calcium-activated potassium channel (Rattus norvegicus, UniProt P70604+P70606+P70605); test: The blocking of apamin-sensitive [Ca2+]-activated K+ (SKCa) channel was assessed by the compounds ability to inhibit the after-hyperpolarization in cultured rat superior cervical ganglion neurons; format: functional
[2] = molecular target: Small conductance calcium-activated potassium channel (Rattus norvegicus) (UniProt P70604+P70606+P70605); test: The ratio of compound concentrations and dequalinium that cause 50% inhibition of the after-hyperpolarization; format: functional

c1cc2cc(c1)C[n+]1ccc(c3ccccc31)NCc1ccc(cc1)CNc1cc[n+](c3ccccc13)C2
IC50 [1]: 0.003 µM
EMR [2]: 0.01

C1=C\c2ccc(cc2)C[n+]2ccc(c3ccccc32)NCCCCCCCCCCNc2cc[n+](c3ccccc23)Cc2ccc/1cc2
IC50 [1]: 0.15 µM
EMR [2]: 0.29

Nc1cc[n+](Cc2ccc3c(c2)Cc2cc(C[n+]4ccc(N)c5ccccc54)ccc2-3)c2ccccc12
IC50 [1]: 0.31 µM
EMR [2]: 0.33

Cc1cc(N)c2ccccc2[n+]1CCCCCCCCCC[n+]1c(C)cc(N)c2ccccc21.[Cl-].[Cl-] [DEQUALINIUM CHLORIDE]
IC50 [1]: 0.65 µM
EMR [2]: 1

c1ccc2c(c1)c1cc[n+]2Cc2ccc(cc2)Cc2ccc(cc2)C[n+]2ccc(c3ccccc32)NCc2ccc(cc2)Cc2ccc(cc2)CN1
IC50 [1]: 0.26 µM
EMR [2]: 0.31

Nc1cc[n+](Cc2cccc(-c3cccc(C[n+]4ccc(N)c5ccccc54)c3)c2)c2ccccc12
IC50 [1]: 0.29 µM
EMR [2]: 0.55

c1ccc2c(c1)c1cc[n+]2Cc2ccc3c(c2)Cc2cc(ccc2-3)C[n+]2ccc(c3ccccc32)NCc2ccc(cc2)-c2ccc(cc2)CN1
IC50 [1]: 0.12 µM
EMR [2]: 0.15

Oc1c2cccc1C[n+]1ccc(c3ccccc31)NCc1ccc(cc1)CNc1cc[n+](c3ccccc13)C2
IC50 [1]: 0.06 µM
EMR [2]: 0.14

c1cc2cc(c1)CNc1cc[n+](c3ccccc13)Cc1ccc(cc1)C[n+]1ccc(c3ccccc31)NC2
IC50 [1]: 0.07 µM
EMR [2]: 0.18

Nc1cc[n+](Cc2ccc(C[n+]3ccc(N)c4ccccc43)cc2)c2ccccc12
IC50 [1]: 2.8 µM
EMR [2]: 3.7

Nc1cc[n+](Cc2ccc(-c3cccc(-c4ccc(C[n+]5ccc(N)c6ccccc65)cc4)n3)cc2)c2ccccc12
IC50 [1]: 0.36 µM
EMR [2]: 0.59

Nc1cc[n+](Cc2cccc(C[n+]3ccc(N)c4ccccc43)c2)c2ccccc12
EMR [2]: 1.32

c1ccc2c(c1)c1cc[n+]2Cc2ccc(cc2)-c2ccc(cc2)C[n+]2ccc(c3ccccc32)NCc2ccc(cc2)Cc2ccc(cc2)CN1
IC50 [1]: 0.15 µM
EMR [2]: 0.26

c1ccc2c(c1)c1cc[n+]2Cc2ccc(cc2)-c2ccc(cc2)C[n+]2ccc(c3ccccc32)NCc2ccc(cc2)-c2ccc(cc2)CN1
IC50 [1]: 0.43 µM
EMR [2]: 0.89

COc1c2cccc1C[n+]1ccc(c3ccccc31)NCc1ccc(cc1)CNc1cc[n+](c3ccccc13)C2
IC50 [1]: 0.025 µM
EMR [2]: 0.019

c1cc2nc(c1)-c1ccc(cc1)C[n+]1ccc(c3ccccc31)NCc1ccc(cc1)Cc1ccc(cc1)CNc1cc[n+](c3ccccc13)Cc1ccc-2cc1
IC50 [1]: 0.38 µM
EMR [2]: 0.88

Nc1cc[n+](Cc2ccc(CCc3ccc(C[n+]4ccc(N)c5ccccc54)cc3)cc2)c2ccccc12
IC50 [1]: 0.41 µM
EMR [2]: 0.71

c1ccc2c(c1)c1cc[n+]2Cc2ccc(cc2)Cc2ccc(cc2)C[n+]2ccc(c3ccccc32)NCCCCCCCCCCN1 [UCL-1530]
IC50 [1]: 0.08 µM
EMR [2]: 0.16

c1ccc2c(c1)c1cc[n+]2Cc2ccc(cc2)Cc2ccc(cc2)C[n+]2ccc(c3ccccc32)NCc2ccc(cc2)-c2ccc(cc2)CN1
IC50 [1]: 0.28 µM
EMR [2]: 0.8

Nc1cc[n+](Cc2ccc(/C=C\c3ccc(C[n+]4ccc(N)c5ccccc54)cc3)cc2)c2ccccc12
IC50 [1]: 0.19 µM
EMR [2]: 0.24

c1ccc2c(c1)c1cc[n+]2CCCCCCCCCC[n+]2ccc(c3ccccc32)NCc2ccc(cc2)-c2ccc(cc2)CN1
IC50 [1]: 0.21 µM
EMR [2]: 0.25

Nc1cc[n+](Cc2ccc(Cc3ccc(C[n+]4ccc(N)c5ccccc54)cc3)cc2)c2ccccc12
IC50 [1]: 0.45 µM
EMR [2]: 0.39

C1=C\c2ccc(cc2)C[n+]2ccc(c3ccccc32)NCc2ccc(cc2)Cc2ccc(cc2)CNc2cc[n+](c3ccccc23)Cc2ccc/1cc2
IC50 [1]: 0.25 µM
EMR [2]: 1.1

c1ccc2c(c1)c1cc[n+]2Cc2ccc(cc2)-c2ccc(cc2)C[n+]2ccc(c3ccccc32)NCCCCCCCCCCN1
IC50 [1]: 0.17 µM
EMR [2]: 0.26

c1cc2cc(c1)-c1cccc(c1)C[n+]1ccc(c3ccccc31)NCCCCCCCCCCNc1cc[n+](c3ccccc13)C2
IC50 [1]: 0.11 µM
EMR [2]: 0.28

c1cc2cc(c1)CNc1cc[n+](c3ccccc13)Cc1cccc(c1)C[n+]1ccc(c3ccccc31)NC2
IC50 [1]: 0.13 µM
EMR [2]: 0.22

Oc1c2cc(I)cc1C[n+]1ccc(c3ccccc31)NCc1ccc(cc1)CNc1cc[n+](c3ccccc13)C2
IC50 [1]: 0.1 µM
EMR [2]: 0.16

c1ccc2c(c1)c1cc[n+]2Cc2ccc(cc2)CCc2ccc(cc2)C[n+]2ccc(c3ccccc32)NCCCCCCCCCCN1
IC50 [1]: 0.18 µM
EMR [2]: 0.57

Nc1cc[n+](Cc2ccc(-c3ccc(C[n+]4ccc(N)c5ccccc54)cc3)cc2)c2ccccc12
IC50 [1]: 0.38 µM
EMR [2]: 0.4

c1ccc2c(c1)c1cc[n+]2Cc2ccc3c(c2)Cc2cc(ccc2-3)C[n+]2ccc(c3ccccc32)NCCCCCCCCCCN1
IC50 [1]: 0.09 µM
EMR [2]: 0.11

c1ccc2c(c1)c1cc[n+]2Cc2ccc(cc2)C[n+]2ccc(c3ccccc32)NCc2ccc(cc2)CN1
IC50 [1]: 0.028 µM
EMR [2]: 0.05
